In US20070154538A1, “Removal of fat cells by PDT” (CeramOptec GmbH, priority 2005, published 2007):

Assay: solubility of the photosensitizer in triglycerides
Format: physicochemical
Conditions: the main component of adipose cells

For `Oc1cccc(-c2c3nc(c(-c4cccc(O)c4)c4ccc([nH]4)c(-c4cccc(O)c4)c4nc(c(-c5cccc(O)c5)c5ccc2[nH]5)CC4)C=C3)c1` [mTHPC, temoporfin], the “solubility level in the triglycerides” value was “low solubility level”.
